The values that follow come from the supplement of paper PMC11616607.

The structures appear in SMILES notation.

One test relates to HOSE1C. The test is described as follows: drug sensitivity score (DSS) from 5-point dose-response viability curve (DSS (area-under-curve based score)); higher = more sensitive (stronger growth inhibition or killing); extreme values may be limits of the assay. Particulars: exposure time: 72 h; concentration range: 5 concentrations over 10,000-fold range. In a few lines:
(§1)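 Viability of ovarian cancer and normal ovarian cell lines was read by CellTiter-Glo luminescence after 3 days at 37°C and 5% CO2 in 384-well plates holding 1,500 cells per well. Drugs had been dispensed in DMSO or water with an Echo 550 at five concentrations over a 10,000-fold range. Using Breeze software, a drug sensitivity score was assigned per cell line and drug, higher scores meaning more sensitive, and zero means no response.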
`C[C@H]1C[C@@H]2[C@H]([C@@H](O)C[C@@]3(C)[C@H]2CC[C@]3(O)C(=O)CO)[C@@]2(C)C=CC(=O)C=C12` [Methylprednisolone]: the drug sensitivity score was determined as 0.

The compound `CO[C@@H]1[C@H](N(C)C(=O)c2ccccc2)C[C@H]2O[C@]1(C)n1c3ccccc3c3c4c(c5c6ccccc6n2c5c31)C(=O)NC4` [Midostaurin] yielded a drug sensitivity score of 11.7.

`CNC(=O)c1nn(C)c2c1C(C)(C)Cc1cnc(Nc3ccc(N4CCN(C)CC4)cc3)nc1-2` [Milciclib] displayed a drug sensitivity score of 8.8.

In turn, `CCCCCCCCCCCCCCCCOP(=O)([O-])OCC[N+](C)(C)C` [Miltefosine] had a drug sensitivity score of 5.5.

For the compound `CO[C@@]12[C@H](COC(N)=O)C3=C(C(=O)C(C)=C(N)C3=O)N1C[C@@H]1N[C@@H]12` [Mitomycin C], the drug sensitivity score amounted to 0.

Compound `Clc1ccc(C(c2ccccc2Cl)C(Cl)Cl)cc1` (stereo not given) [Mitotane] gave a drug sensitivity score of 0.

`O=C1c2c(O)ccc(O)c2C(=O)c2c(NCCNCCO)ccc(NCCNCCO)c21` [Mitoxantrone] came in with a drug sensitivity score of 12.5.

`CCS(=O)(=O)Nc1ccc(Oc2ccc(F)cc2F)c(-c2cn(C)c(=O)c3[nH]ccc23)c1` [Mivebresib] showed a drug sensitivity score of 30.7.

Regarding `Nc1ccccc1NC(=O)c1ccc(CNc2nccc(-c3cccnc3)n2)cc1` [Mocetinostat], the drug sensitivity score stood at 17.8.

For `CCNC(=O)C[C@@H]1N=C(c2ccc(Cl)cc2)c2cc(OC)ccc2-n2c(C)nnc21` [Molibresib], the drug sensitivity score came out at 9.8.

`N#CCNC(=O)c1ccc(-c2ccnc(Nc3ccc(N4CCOCC4)cc3)n2)cc1` [Momelotinib] showed a drug sensitivity score of 6.8.

In turn, `CC1(C)CNc2cc(NC(=O)c3cccnc3NCc3ccncc3)ccc21` [Motesanib] returned a drug sensitivity score of 0.

Regarding `CCCN(CCC)C(=O)C1=Cc2ccc(-c3ccc(C(=O)N4CCCC4)cc3)cc2N=C(N)C1` [Motolimod], the drug sensitivity score worked out at 0.

`FC(F)(F)c1ccc(/C=C/c2nc(COc3ccc(CCCCn4ccnn4)cc3)co2)cc1` [Mubritinib] yielded a drug sensitivity score of 0.

`Cc1cc(OCc2nnc(SC3CCCC3)n2-c2cccnc2)ccc1-c1ccc(S(C)(=O)=O)cc1` [NMS-873] had a drug sensitivity score of 9.3.

In turn, `COc1ccc(-c2ccc3ncc4c(c3c2)n(-c2ccc(N3CCNCC3)c(C(F)(F)F)c2)c(=O)n4C)cn1` [NVP-BGT226] displayed a drug sensitivity score of 22.2.

`Cc1ccc(C(=O)Nc2cccc(C(F)(F)F)c2)cc1Nc1nc(-c2cccnc2)nc2c1cnn2C` [NVP-BHG712] registered a drug sensitivity score of 2.2.

The compound `COc1cc2c(cc1OC(C)C)[C@H](c1ccc(Cl)cc1)N(c1ccc(N(C)C[C@H]3CC[C@H](N4CCN(C)C(=O)C4)CC3)cc1)C(=O)C2` [NVP-CGM097] showed a drug sensitivity score of 11.4.

For the compound `CN[C@@H](C)C(=O)N[C@H](C(=O)N1CCC[C@H]1c1nc(C(=O)c2ccc(F)cc2)cs1)C1CCCCC1` [NVP-LCL161], the drug sensitivity score was 0.7.

`Cn1c(Nc2ccc(C(F)(F)F)cc2)nc2cc(Oc3ccnc(-c4ncc(C(F)(F)F)[nH]4)c3)ccc21` [NVP-RAF265]: the drug sensitivity score came out at 6.9.

Turning to `CC(=O)c1cc2c(o1)C(=O)c1ccccc1C2=O` [Napabucasin], the drug sensitivity score was 28.9.

As for `CC1(C)CCC(c2ccc(Cl)cc2)=C(CN2CCN(c3ccc(C(=O)NS(=O)(=O)c4ccc(N[C@H](CCN5CCOCC5)CSc5ccccc5)c(S(=O)(=O)C(F)(F)F)c4)cc3)CC2)C1` [Navitoclax], the drug sensitivity score was 24.2.

Compound `CN1C(=O)N[C@H](Cc2c[nH]c3c(Cl)cccc23)C1=O` [Necrostatin 2] had a drug sensitivity score of 0.

Consider `O=c1ncn2nc(Sc3ccc(F)cc3F)ccc2c1-c1c(Cl)cccc1Cl` [Neflamapimod], for which the drug sensitivity score was determined as 0.1.

In turn, `COc1nc(N)nc2c1ncn2[C@@H]1O[C@H](CO)[C@@H](O)[C@@H]1O` [Nelarabine] gave a drug sensitivity score of 0.

In turn, `CCOc1cc2ncc(C#N)c(Nc3ccc(OCc4ccccn4)c(Cl)c3)c2cc1NC(=O)/C=C/CN(C)C` [Neratinib] had a drug sensitivity score of 0.

`Cc1cn(-c2cc(NC(=O)c3ccc(C)c(Nc4nccc(-c5cccnc5)n4)c3)cc(C(F)(F)F)c2)cn1` [Nilotinib] displayed a drug sensitivity score of 0.

`CC1(C)NC(=O)N(c2ccc([N+](=O)[O-])c(C(F)(F)F)c2)C1=O` [Nilutamide] registered a drug sensitivity score of 0.8.

Regarding `COC(=O)c1ccc2c(c1)NC(=O)/C2=C(\Nc1ccc(N(C)C(=O)CN2CCN(C)CC2)cc1)c1ccccc1` [Nintedanib], the drug sensitivity score was determined as 3.1.

With `NC(=O)c1cccc2cn(-c3ccc([C@@H]4CCCNC4)cc3)nc12` [Niraparib], the drug sensitivity score worked out at 3.9.

The test system of a further test is HOSE2C. The description is as above. Particulars: exposure time: 72 h; concentration range: 5 concentrations over 10,000-fold range. In a few lines:
as §1
With `C[C@H]1C[C@@H]2[C@H]([C@@H](O)C[C@@]3(C)[C@H]2CC[C@]3(O)C(=O)CO)[C@@]2(C)C=CC(=O)C=C12` [Methylprednisolone], the drug sensitivity score came to 0.

Regarding `CO[C@@H]1[C@H](N(C)C(=O)c2ccccc2)C[C@H]2O[C@]1(C)n1c3ccccc3c3c4c(c5c6ccccc6n2c5c31)C(=O)NC4` [Midostaurin], the drug sensitivity score was 15.1.

On to `CNC(=O)c1nn(C)c2c1C(C)(C)Cc1cnc(Nc3ccc(N4CCN(C)CC4)cc3)nc1-2` [Milciclib], for which the drug sensitivity score came out at 7.4.

`CCCCCCCCCCCCCCCCOP(=O)([O-])OCC[N+](C)(C)C` [Miltefosine] returned a drug sensitivity score of 5.9.

`CO[C@@]12[C@H](COC(N)=O)C3=C(C(=O)C(C)=C(N)C3=O)N1C[C@@H]1N[C@@H]12` [Mitomycin C] had a drug sensitivity score of 0.

Compound `Clc1ccc(C(c2ccccc2Cl)C(Cl)Cl)cc1` (stereo not given) [Mitotane] displayed a drug sensitivity score of 0.

Turning to `O=C1c2c(O)ccc(O)c2C(=O)c2c(NCCNCCO)ccc(NCCNCCO)c21` [Mitoxantrone], the drug sensitivity score worked out at 12.8.

`CCS(=O)(=O)Nc1ccc(Oc2ccc(F)cc2F)c(-c2cn(C)c(=O)c3[nH]ccc23)c1` [Mivebresib] had a drug sensitivity score of 25.6.

`Nc1ccccc1NC(=O)c1ccc(CNc2nccc(-c3cccnc3)n2)cc1` [Mocetinostat]: the drug sensitivity score turned out to be 15.7.

As to `CCNC(=O)C[C@@H]1N=C(c2ccc(Cl)cc2)c2cc(OC)ccc2-n2c(C)nnc21` [Molibresib], the drug sensitivity score came out at 10.

`N#CCNC(=O)c1ccc(-c2ccnc(Nc3ccc(N4CCOCC4)cc3)n2)cc1` [Momelotinib]: the drug sensitivity score came out at 5.8.

Compound `CC1(C)CNc2cc(NC(=O)c3cccnc3NCc3ccncc3)ccc21` [Motesanib] displayed a drug sensitivity score of 0.

For the compound `CCCN(CCC)C(=O)C1=Cc2ccc(-c3ccc(C(=O)N4CCCC4)cc3)cc2N=C(N)C1` [Motolimod], the drug sensitivity score came out at 0.

Consider `FC(F)(F)c1ccc(/C=C/c2nc(COc3ccc(CCCCn4ccnn4)cc3)co2)cc1` [Mubritinib], for which the drug sensitivity score was found to be 0.

Consider `Cc1cc(OCc2nnc(SC3CCCC3)n2-c2cccnc2)ccc1-c1ccc(S(C)(=O)=O)cc1` [NMS-873], for which the drug sensitivity score worked out at 8.1.
